How the values were obtained:
Format in all cases: in vivo
[1] = system: Cowpea Aphid (Aphis craccivora); assay: Cowpea aphid test, colonized potted cowpea plants sprayed; conditions: spray, population reduction recorded after 24, 72 and 120 hours, read-out: mortality in comparison with untreated controls
Description: III. Cowpea Aphid (Aphis craccivora)
(§1) The active compounds were formulated in 50:50 acetone: water and 100 ppm Kinetic® surfactant.
Potted cowpea plants colonized with 100-150 aphids of various stages were sprayed after the pest population has been recorded. Population reduction was recorded after 24, 72, and 120 hours.

[2] = system: Cotton Aphid (Aphis gossypii); assay: Cotton aphid test, cotyledons of infested cotton plants dipped; conditions: 120 h, dip, aphid mortality determined after 5 days, read-out: mortality in comparison with untreated controls
Description: I. Cotton Aphid (Aphis gossypii)
as §1
(§2) Cotton plants in the cotyledon stage (variety ‘Delta Pine’) are infested with approximately 100 laboratory-reared aphids by placing infested leaf sections on top of the test plants. The leaf sections are removed after 24 hours. The cotyledons of the intact plants are dipped into gradient solutions of the test compound. Aphid mortality on the treated plants, relative to mortality on check plants, is determined after 5 days.

[3] = system: Green Peach Aphid (Myzus persicae); assay: Green peach aphid test, leaves of infested pepper plants dipped; conditions: 120 h, dip, aphid mortality determined after 5 days, read-out: mortality in comparison with untreated controls
Description: II. Green Peach Aphid (Myzus persicae)
as §1
as §2, with “Pepper” for “Cotton”, “2nd leaf-pair” for “cotyledon”, “‘California Wonder’)” for “‘Delta Pine’)”, “40” for “100”, “leaves” for “cotyledons”

[4] = system: Silverleaf Whitefly; assay: Silverleaf whitefly test, cotton cotyledons dipped, adults introduced; conditions: Bemisia argentifolii, 72 h, cotton plants, dip, mortality assessed 3 days after treatment, read-out: mortality in comparison with untreated controls
Description: as §1
Selected cotton plants were grown to the cotyledon state (one plant per pot). The cotyledons were dipped into the test solution to provide complete coverage of the foliage and placed in a well-vented area to dry. Each pot with treated seedling was placed in a plastic cup and 10 to 12 whitefly adults (approximately 3-5 day old) were introduced. The insects were colleted using an aspirator and a 0.6 cm, non-toxic Tygon® tubing (R-3603) connected to a barrier pipette tip. The tip, containing the collected insects, was then gently inserted into the soil containing the treated plant, allowing insects to crawl out of the tip to reach the foliage for feeding. The cups were covered with a re-usable screened lid (150 micron mesh polyester screen PeCap from Tetko Inc). Test plants were maintained in the holding room at about 25 °C and 20-40% relative humidity for 3 days avoiding direct exposure to the fluorescent light (24 hour photoperiod) to prevent trapping of heat inside the cup. Mortality was assessed 3 days after treatment of the plants.

SMILES	mortality at 300 ppm [1] [%]	mortality at 300 ppm [2] [%]	mortality at 300 ppm [3] [%]	mortality at 300 ppm [4] [%]
Cc1cccc(C#CCC(NC(=S)NCCO)c2cccc(C)c2C)c1 (stereo not drawn) [Example 2, 1-[1-(2,3-dimethyl-phenyl)-4-m-tolyl-but-3-ynyl]-3-(2-hydroxy-ethyl)-thiourea]	> 70	–	–	–
Cc1cccc(C#CCC(NC2=NCCS2)c2cccc(C)c2C)c1 (stereo not drawn) [Example 13, (4,5-dihydro-thiazol-2-yl)-[1-(2,3-dimethyl-phenyl)-4-m-tolyl-but-3-ynyl]-amine]	> 70	> 70	> 70	> 70
C#CCC(NC1=NCCS1)c1cccc(C)c1C (stereo not drawn) [Example 14, (4,5-dihydro-thiazol-2-yl)-[1-(2,3-dimethyl-phenyl)-but-3-ynyl]-amine]	> 70	–	–	–
Cc1cccc(C(CC#Cc2cccc(Cl)c2)NC2=NCCS2)c1C (stereo not drawn) [Example 15, [4-(3-chloro-phenyl)-1-(2,3-dimethyl-phenyl)-but-3-ynyl]-(4,5-dihydro-thiazol-2-yl)-amine]	> 70	> 70	> 70	–

Source: US20110118116A1, “Azolin-2-ylamino Compounds for Combating Animal Pests” (priority 2008, published 2011)
